From PMC3135787 (Antiviral research, 2011)
Each block holds one compound with its values, some of them ahead of it.

Key:
[1] = target: T1, Human guanylate kinase (hGUK1) (Homo sapiens, UniProt Q16774); test: hGUK1-mediated phosphorylation, coupled spectrophotometric assay; assay type: biochemical
T1 sequence (Q16774 1-197): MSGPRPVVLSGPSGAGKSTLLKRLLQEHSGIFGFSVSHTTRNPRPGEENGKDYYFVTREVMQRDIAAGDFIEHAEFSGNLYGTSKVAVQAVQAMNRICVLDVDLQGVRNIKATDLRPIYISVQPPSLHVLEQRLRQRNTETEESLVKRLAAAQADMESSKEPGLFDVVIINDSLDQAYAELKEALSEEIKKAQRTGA

[2] = tested on: primary human hepatocytes; test: Metabolism of [3H]-PSI-353661 in primary human hepatocytes; assay type: in vitro ADME; conditions: continuous exposure to 5 μM [3H]-PSI-353661
[3] = target: T2, recombinant human ADAL1 (Homo sapiens, UniProt Q6DHV7); test: ADAL1-mediated demethylation assay; assay type: biochemical; conditions: ADAL1, pH 6.7, 37°C
T2 sequence (Q6DHV7 1-355): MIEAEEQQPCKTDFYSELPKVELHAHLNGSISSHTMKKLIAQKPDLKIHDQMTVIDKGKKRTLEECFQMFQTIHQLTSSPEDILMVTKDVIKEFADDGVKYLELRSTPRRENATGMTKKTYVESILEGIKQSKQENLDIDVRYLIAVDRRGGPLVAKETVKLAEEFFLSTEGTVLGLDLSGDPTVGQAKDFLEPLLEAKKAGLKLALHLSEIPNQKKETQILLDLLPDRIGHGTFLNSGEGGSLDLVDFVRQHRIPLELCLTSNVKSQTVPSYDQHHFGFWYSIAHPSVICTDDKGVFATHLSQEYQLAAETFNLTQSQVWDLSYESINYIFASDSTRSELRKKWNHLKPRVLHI

[4] = tested on: ET replicon with NS5B C316Y; test: microbe, parasite or virus in culture; assay type: cell-based, HCV
[5] = tested on: Clone A replicon with NS5B S282T; test: microbe, parasite or virus in culture; assay type: cell-based, HCV
[6] = tested on: Clone A wild type replicon; test: Cross resistance: Clone A wild type replicon, RT-PCR; assay type: cell-based, HCV; conditions: Hepatitis C virus, read-out: EC90 WT replicon
[7] = tested on: ET replicon with NS5B S96T/N142T; test: microbe, parasite or virus in culture; assay type: cell-based, HCV
[8] = tested on: genotype 2a J6/JFH-1 subgenomic replicon; test: HCV replicon assay, genotype 2a J6/JFH-1; assay type: cell-based; conditions: GT2a_JFH-1 replicon, four days
[9] = tested on: genotype 1a H77 subgenomic replicon; test: HCV replicon assay, genotype 1a H77; assay type: cell-based; conditions: GT1a_H77 replicon, four days
[10] = tested on: genotype 1b replicon (Con1 strain); test: HCV replicon assay, genotype 1b Con1; assay type: cell-based; conditions: GT1b_Con1 replicon, four days (96 h)
[11] = tested on: ET replicon with NS5B M414T; test: microbe, parasite or virus in culture; assay type: cell-based, HCV
[12] = Hepatitis C virus, read-out: EC90 Mutant replicon

Km compared to GMP (fold weaker) ([1]; hGUK1): 3.4 fold
kcat compared to GMP (fold lower) ([1]; hGUK1): approximately 240 fold
Km ([1]; hGUK1, 37°C): 64.9 ± 1.6 µM
kcat ([1]; hGUK1, 37°C): 0.31 ± 0.03 s⁻¹
time to maximum intracellular concentration [2]: 1 to 2 h
SMILES: C[C@@]1(F)[C@H](O)[C@@H](COP(=O)(O)O)O[C@H]1n1cnc2c(=O)[nH]c(N)nc21 [PSI-353222, 2′-deoxy-2-α-fluoro-2-β-C-methylguanosine-5′-monophosphate]

Km [3]: 12.5 ± 1.6 µM
kcat [3]: 1.58 ± 0.12 s⁻¹
SMILES: CNc1ncnc2c1ncn2[C@@H]1O[C@H](COP(=O)(O)O)[C@@H](O)[C@H]1O [N^6-meAMP, N^6-methyl AMP, reference compound]

time to maximum intracellular concentration [2]: 0.5 to 1 h
SMILES: COc1nc(N)nc2c1ncn2[C@@H]1O[C@H](CO)[C@@H](O)[C@@]1(C)F [PSI-352878, (2R,3R,4R,5R)-5-(2-amino-6-methoxy-purin-9-yl)-4-fluoro-2-hydroxymethyl-4-methyl-tetrahydro-furan-3-ol]

SMILES: CNC(=O)c1c(-c2ccc(F)cc2)oc2cc(N(CCO)S(C)(=O)=O)c(C3CC3)cc12 [HCV-796, 5-cyclopropyl-2-(4-fluoro-phenyl)-6-[(2-hydroxy-ethyl)-methanesulfonyl-amino]-benzofuran-3-carboxylic acid methylamide, reference compound]
EC90 fold change ([4]; C316Y mutant EC90 normalised to wild-type): 73.9
EC90 [4, 12]: 1.92 ± 0.77 µM

Km [3]: No activity
kcat [3]: No activity
kcat / Km [3]: No activity
time to maximum intracellular concentration [2]: 0.25 h
SMILES: COc1nc(N)nc2c1ncn2[C@@H]1O[C@H](COP(=O)(O)N[C@@H](C)C(=O)O)[C@@H](O)[C@@]1(C)F [PSI-353131, (S)-2-{[(2R,3R,4R,5R)-5-(2-amino-6-methoxy-purin-9-yl)-4-fluoro-3-hydroxy-4-methyl-tetrahydro-furan-2-ylmethoxy]-hydroxy-phosphorylamino}-propionic acid]

SMILES: [N-]=[N+]=N[C@]1(CO)O[C@@H](n2ccc(N)nc2=O)[C@H](O)[C@@H]1O [R1479, 4′-azidocytidine]
EC90 [5, 12]: 12.5 ± 3.78 µM
EC90 fold change ([5]; S282T mutant EC90 normalised to wild-type): 0.6
EC90 [6]: 22.4 ± 4.58 µM
EC90 [7, 12]: 74.1 ± 12.1 µM
EC90 fold change ([7]; S96T/N142T mutant EC90 normalised to wild-type): 4.7

Km [3]: 5.2 ± 0.9 µM
kcat [3]: 2.33 ± 0.07 s⁻¹
SMILES: COc1nc(N)nc2c1ncn2[C@@H]1O[C@H](COP(=O)(O)O)[C@@H](O)[C@H]1O [O^6-meGMP, O^6-methyl GMP, reference compound]

SMILES: C[C@@]1(F)[C@H](O)[C@@H](CO)O[C@H]1n1cnc2c(=O)[nH]c(N)nc21 [PSI-6567, 2′-F-2′-C-methylguanosine]
EC50 [8]: 38.3 ± 18.6 µM
EC90 [8]: 60 ± 14.8 µM
EC50 [9]: 19 ± 8.6 µM
EC90 [9]: 53.4 ± 12.8 µM
time to maximum intracellular concentration [2]: 0.5 to 1 h
EC50 [10]: 22 ± 7.7 µM
EC90 [10]: 69.2 ± 19.3 µM

activity as substrate ([1]; hGUK1, 500 μM, the highest concentration tested): No activity
Km ([1]; hGUK1, 37°C): No activity
kcat ([1]; hGUK1, 37°C): No activity
kcat / Km ([1]; hGUK1, 37°C): No activity
Km [3]: 9 ± 2.1 µM
kcat [3]: 5.84 ± 0.40 s⁻¹
time to maximum intracellular concentration [2]: 0.5 to 1 h
SMILES: COc1nc(N)nc2c1ncn2[C@@H]1O[C@H](COP(=O)(O)O)[C@@H](O)[C@@]1(C)F [PSI-353224, 2-amino-6-methoxypurine 2′-deoxy-2′-α-fluoro-2-β-C-methylribose-5′-monophosphate]

SMILES: CC(C)CCn1c(=O)c(C2=NS(=O)(=O)c3cc(N(C)S(C)(=O)=O)ccc3N2)c(O)c2cccn21 [Benzothiadiazine, N-{3-[4-Hydroxy-1-(3-methyl-butyl)-2-oxo-1,2-dihydro-pyrrolo[1,2-b]pyridazin-3-yl]-1,1-dioxo-1,4-dihydro-1λ^6-benzo[1,2,4]thiadiazin-7-yl}-N-methyl-methanesulfonamide, reference compound]
EC90 [11, 12]: 28.4 ± 13.7 µM
EC90 fold change ([11]; M414T mutant EC90 normalised to wild-type): 23.1
